Data on 17 molecules can be found in patent publication US20210317140A1, “Heterocyclic Compounds and Methods of Use” (MEDIVATION TECHNOLOGIES, INC, priority 2013, published 2021).

Test [1] concerns the target T1, PI3Kδ (Homo sapiens, UniProt O00329).
T1 construct: purchased Reaction Biology Corporation
Kind of test: PI3Kδ kinase assay (HTRF, PIP3 detection). Format: biochemical. To be noted: for PI3Kδ @ 0.1 μM (% Inh): 0.1 μM compound; for PI3Kδ @ 0.1 μM (% Inh) / PI3Kδ @ 1 μM (% Inh) / PI3Kδ @ 0.01 μM (% Inh): 10 μM ATP; for PI3Kδ @ 1 μM (% Inh): 1 μM compound; for PI3Kδ @ 0.01 μM (% Inh): 0.01 μM compound. In a few lines:
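10-dose HTRF assay; kinase preincubated with compound 10 min at RT, then reacted with 10 μM PIP2 and 10 μM ATP for 30 min at 30 °C in HEPES pH 7.0 buffer. PIP3 product displaces biotin-PIP3 from the Eu/APC complex; signal converted to PIP3 via standard curve, IC50 by nonlinear regression.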
(In general: Time-resolved FRET reads energy transfer from a long-lived donor to a nearby acceptor.)

For test [2], the target named is T2, BTK (Homo sapiens, UniProt Q06187).
T2 construct: purchased Reaction Biology Corporation
Briefly: BTK kinase assay (HotSpot, 33P ATP). To be noted: for BTK @ 0.1 μM (% Inh): 0.1 μM compound; for BTK @ 0.1 μM (% Inh) / BTK @ 1 μM (% Inh) / BTK @ 0.01 μM (% Inh): 10 μM ATP; for BTK @ 1 μM (% Inh): 1 μM compound; for BTK @ 0.01 μM (% Inh): 0.01 μM compound. Format: biochemical. Summed up: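 In 20 mM Hepes (pH 7.5) with 10 mM MgCl2, 1 mM EGTA, 0.1 mM Na3VO4, 2 mM DTT, 0.02% Brij35, 0.02 mg/mL BSA and 1% DMSO, kinase and substrate were exposed to ten compound doses for 15–20 min.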

Where “and” joins values, the source holds several entries; their conditions need not be identical. Equal entries are not always repeated.

T2 sequence (Q06187 whole entry): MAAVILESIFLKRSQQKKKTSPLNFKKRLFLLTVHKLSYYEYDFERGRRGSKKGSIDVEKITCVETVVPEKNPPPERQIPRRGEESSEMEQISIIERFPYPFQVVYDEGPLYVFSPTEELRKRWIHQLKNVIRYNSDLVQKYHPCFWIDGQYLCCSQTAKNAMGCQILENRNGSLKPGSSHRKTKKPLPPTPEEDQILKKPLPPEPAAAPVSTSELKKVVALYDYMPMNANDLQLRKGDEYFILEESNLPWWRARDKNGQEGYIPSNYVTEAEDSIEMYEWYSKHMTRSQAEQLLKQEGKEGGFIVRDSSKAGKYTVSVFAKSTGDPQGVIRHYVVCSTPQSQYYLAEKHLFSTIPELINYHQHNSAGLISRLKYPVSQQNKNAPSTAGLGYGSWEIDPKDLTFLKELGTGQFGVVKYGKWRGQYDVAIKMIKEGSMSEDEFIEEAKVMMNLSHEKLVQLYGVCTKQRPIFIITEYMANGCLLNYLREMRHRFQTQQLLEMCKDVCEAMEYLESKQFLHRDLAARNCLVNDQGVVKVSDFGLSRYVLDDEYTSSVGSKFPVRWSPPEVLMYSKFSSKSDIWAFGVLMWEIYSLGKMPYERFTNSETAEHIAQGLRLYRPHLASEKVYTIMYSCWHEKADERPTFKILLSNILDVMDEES
T1 sequence (O00329 whole entry): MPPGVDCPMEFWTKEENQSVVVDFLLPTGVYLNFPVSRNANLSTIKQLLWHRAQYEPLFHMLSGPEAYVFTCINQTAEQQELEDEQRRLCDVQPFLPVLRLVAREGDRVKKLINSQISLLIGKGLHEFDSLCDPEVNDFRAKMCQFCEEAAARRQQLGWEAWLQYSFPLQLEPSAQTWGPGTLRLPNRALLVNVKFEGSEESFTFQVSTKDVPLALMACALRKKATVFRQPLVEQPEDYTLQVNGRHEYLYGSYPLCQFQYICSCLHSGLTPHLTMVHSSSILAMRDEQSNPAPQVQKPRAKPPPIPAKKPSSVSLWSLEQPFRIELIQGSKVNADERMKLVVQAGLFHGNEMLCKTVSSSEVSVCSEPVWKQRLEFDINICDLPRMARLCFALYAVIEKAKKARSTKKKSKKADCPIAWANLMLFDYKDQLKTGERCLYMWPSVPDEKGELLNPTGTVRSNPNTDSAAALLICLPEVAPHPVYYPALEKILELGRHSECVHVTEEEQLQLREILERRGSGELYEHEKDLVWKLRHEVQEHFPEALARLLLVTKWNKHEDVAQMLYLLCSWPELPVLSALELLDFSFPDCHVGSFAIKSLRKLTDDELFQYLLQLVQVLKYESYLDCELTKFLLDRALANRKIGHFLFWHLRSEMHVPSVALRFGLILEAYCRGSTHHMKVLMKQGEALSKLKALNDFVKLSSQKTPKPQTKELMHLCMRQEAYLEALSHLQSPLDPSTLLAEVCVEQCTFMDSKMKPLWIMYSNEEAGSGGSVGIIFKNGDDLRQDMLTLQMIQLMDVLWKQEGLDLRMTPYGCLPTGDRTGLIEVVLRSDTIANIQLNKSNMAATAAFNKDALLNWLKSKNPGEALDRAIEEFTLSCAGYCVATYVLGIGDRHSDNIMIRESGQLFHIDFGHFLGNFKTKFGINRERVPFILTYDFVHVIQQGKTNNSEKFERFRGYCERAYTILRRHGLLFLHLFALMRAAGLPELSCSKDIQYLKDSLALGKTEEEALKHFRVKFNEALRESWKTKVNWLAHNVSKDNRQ
T1 sequence (P27986 whole entry partner): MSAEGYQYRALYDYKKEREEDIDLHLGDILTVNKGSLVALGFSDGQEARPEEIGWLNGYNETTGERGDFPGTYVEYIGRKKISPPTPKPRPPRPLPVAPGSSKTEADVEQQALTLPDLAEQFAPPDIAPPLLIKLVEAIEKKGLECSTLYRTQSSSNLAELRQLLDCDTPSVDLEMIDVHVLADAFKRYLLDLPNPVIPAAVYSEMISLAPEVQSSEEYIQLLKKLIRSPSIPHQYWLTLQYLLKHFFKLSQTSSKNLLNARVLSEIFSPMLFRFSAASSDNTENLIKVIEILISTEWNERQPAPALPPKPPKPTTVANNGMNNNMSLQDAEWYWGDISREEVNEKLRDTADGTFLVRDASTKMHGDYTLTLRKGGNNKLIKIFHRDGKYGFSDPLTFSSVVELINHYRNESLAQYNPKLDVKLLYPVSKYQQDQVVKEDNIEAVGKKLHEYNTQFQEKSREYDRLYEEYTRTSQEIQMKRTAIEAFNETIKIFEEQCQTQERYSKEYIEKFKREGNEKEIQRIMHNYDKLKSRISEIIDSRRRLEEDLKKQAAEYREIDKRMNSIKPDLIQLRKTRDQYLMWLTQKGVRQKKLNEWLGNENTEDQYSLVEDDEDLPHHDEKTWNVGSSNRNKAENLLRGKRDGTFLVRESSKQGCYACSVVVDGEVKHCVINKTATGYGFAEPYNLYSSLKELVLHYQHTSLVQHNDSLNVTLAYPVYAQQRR

As for `Nc1ncnc2c1c(-c1ccc3cc[nH]c3c1)nn2C1Cc2ccccc2C1` [Compound No. 39, 1-(2,3-dihydro-1H-inden-2-yl)-3-(1H-indol-6-yl)-1H-pyrazolo[3,4-d]pyrimidin-4-amine], in test [1], the “PI3Kδ @ 0.1 μM (% Inh)” value is 24.12 % Inh and 30.2 % Inh; the “PI3Kδ @ 1 μM (% Inh)” value was found to be 67.63 % Inh. In test [2], the “BTK @ 0.1 μM (% Inh)” value was 45.81 % Inh and 37.23 % Inh; the “BTK @ 1 μM (% Inh)” value is 87.24 % Inh.

Consider `COc1cc(-c2nn(C3Cc4ccccc4C3)c3ncnc(N)c23)cc(F)c1F` [Compound No. 91, 3-(3,4-difluoro-5-methoxyphenyl)-1-(2,3-dihydro-1H-inden-2-yl)-1H-pyrazolo[3,4-d]pyrimidin-4-amine], for which, in test [1], the “PI3Kδ @ 0.01 μM (% Inh)” value is −1.19 % Inh and the “PI3Kδ @ 0.1 μM (% Inh)” value is 19.59 % Inh. In test [2], the “BTK @ 0.01 μM (% Inh)” value was found to be 8 % Inh and the “BTK @ 0.1 μM (% Inh)” value is given as 33.72 % Inh.

Take `COc1cc(-c2nn(C3Cc4ccccc4C3)c3ncnc(N)c23)cc(Cl)c1OC` [Compound No. 80, 3-(3-chloro-4,5-dimethoxyphenyl)-1-(2,3-dihydro-1H-inden-2-yl)-1H-pyrazolo[3,4-d]pyrimidin-4-amine]: in test [1], the “PI3Kδ @ 0.1 μM (% Inh)” value is on record as 5.1 % Inh and the “PI3Kδ @ 1 μM (% Inh)” value came out at 29.99 % Inh. In test [2], the “BTK @ 0.1 μM (% Inh)” value is given as 45.74 % Inh and the “BTK @ 1 μM (% Inh)” value is 68.21 % Inh.

In the case of `Nc1ncnc2c1c(N1CCOCC1)nn2C1Cc2ccccc2C1` [Compound No. 48, 1-(2,3-dihydro-1H-inden-2-yl)-3-(morpholin-4-yl)-1H-pyrazolo[3,4-d]pyrimidin-4-amine], in test [1], the “PI3Kδ @ 0.1 μM (% Inh)” value was 7.12 % Inh and the “PI3Kδ @ 1 μM (% Inh)” value is 11.95 % Inh. For the same molecule, in test [2], the “BTK @ 0.1 μM (% Inh)” value came to 1.56 % Inh and the “BTK @ 1 μM (% Inh)” value turned out to be 16.21 % Inh.

For the molecule `COc1cc(F)cc(-c2cn(C3Cc4ccccc4C3)c3ncnc(N)c23)c1` [Compound No. 62, 7-(2,3-dihydro-1H-inden-2-yl)-5-(3-fluoro-5-methoxyphenyl)-7H-pyrrolo[2,3-d]pyrimidin-4-amine], in test [1], the “PI3Kδ @ 0.1 μM (% Inh)” value is 17.28 % Inh and the “PI3Kδ @ 1 μM (% Inh)” value is recorded as 43.03 % Inh. Further, in test [2], the “BTK @ 0.1 μM (% Inh)” value was found to be 57.13 % Inh and the “BTK @ 1 μM (% Inh)” value is listed as 91.61 % Inh.

As to `Nc1ncnc2c1c(/C=C/CO)nn2C1Cc2ccccc2C1` (single isomer, unassigned) [Compound No. 64, (2E)-3-[4-amino-1-(2,3-dihydro-1H-inden-2-yl)-1H-pyrazolo[3,4-d]pyrimidin-3-yl]prop-2-en-1-ol], in test [1], the “PI3Kδ @ 0.1 μM (% Inh)” value was found to be 0.0 % Inh and the “PI3Kδ @ 1 μM (% Inh)” value is 4.07 % Inh. Further, in test [2], the “BTK @ 0.1 μM (% Inh)” value came to 2.74 % Inh and the “BTK @ 1 μM (% Inh)” value stood at 5.76 % Inh.

With `Nc1ncnc2c1c(-c1cccc(O)c1)nn2C1Cc2ccccc2C1` [Compound No. 40, 3-[4-amino-1-(2,3-dihydro-1H-inden-2-yl)-1H-pyrazolo[3,4-d]pyrimidin-3-yl]phenol], the “PI3Kδ @ 0.1 μM (% Inh)” value in test [1] was determined as 41.21 % Inh. The “BTK @ 0.1 μM (% Inh)” value in test [2] amounted to 66.35 % Inh.

In the case of `CCCCOc1cc(-c2nn(C3Cc4ccccc4C3)c3ncnc(N)c23)ccc1OC` [Compound No. 90, 3-(3-butoxy-4-methoxyphenyl)-1-(2,3-dihydro-1H-inden-2-yl)-1H-pyrazolo[3,4-d]pyrimidin-4-amine], in test [1], the “PI3Kδ @ 0.01 μM (% Inh)” value came out at 9.23 % Inh and the “PI3Kδ @ 0.1 μM (% Inh)” value was 44.39 % Inh. In test [2], the “BTK @ 0.01 μM (% Inh)” value is recorded as 7.39 % Inh and the “BTK @ 0.1 μM (% Inh)” value is 6.79 % Inh.

`Nc1ncnc2c1c(-c1ccnc3[nH]ccc13)nn2C1Cc2ccccc2C1` [Compound No. 70, 1-(2,3-dihydro-1H-inden-2-yl)-3-{1H-pyrrolo[2,3-b]pyridin-4-yl}-1H-pyrazolo[3,4-d]pyrimidin-4-amine]: in test [1], the “PI3Kδ @ 0.1 μM (% Inh)” value is 9.29 % Inh and the “PI3Kδ @ 1 μM (% Inh)” value is 56.41 % Inh. Further, in test [2], the “BTK @ 0.1 μM (% Inh)” value is 12.11 % Inh and the “BTK @ 1 μM (% Inh)” value stood at 36.56 % Inh.

Consider `NC(=O)c1ccc(-c2nn(C3CCc4ccccc4C3)c3ncnc(N)c23)cc1` (stereo not drawn) [compound 28, 4-(4-amino-1-tetralin-2-yl-pyrazolo[3,4-d]pyrimidin-3-yl)benzamide], for which, in test [1], the “PI3Kδ @ 0.1 μM (% Inh)” value is 15.27 % Inh. Moreover, the “BTK @ 0.1 μM (% Inh)” value in test [2] came out at 14.0 % Inh.

Turning to `COc1cc(-c2nn(C3Cc4ccccc4C3)c3ncnc(N)c23)ccc1C(F)(F)F` [Compound No. 69, 1-(2,3-dihydro-1H-inden-2-yl)-3-[3-methoxy-4-(trifluoromethyl)phenyl]-1H-pyrazolo[3,4-d]pyrimidin-4-amine], in test [1], the “PI3Kδ @ 0.1 μM (% Inh)” value was 4.96 % Inh and the “PI3Kδ @ 1 μM (% Inh)” value turned out to be 60.21 % Inh. The molecule also displayed a 50% inhibitory concentration (IC50) in test [1] (10 dose IC50, 10 μM ATP) of 328 nM. Besides, in test [2], the “BTK @ 0.1 μM (% Inh)” value is given as 19.61 % Inh and the “BTK @ 1 μM (% Inh)” value was determined as 61.7 % Inh. Moreover, the 50% inhibitory concentration (IC50) in test [2] (10 dose IC50, 10 μM ATP) is 791 nM.

For `COc1ccc(-c2nn(C3CCCc4ccccc43)c3ncnc(N)c23)cc1OC` (stereo not drawn) [compound 33, 3-(3,4-dimethoxyphenyl)-1-(1,2,3,4-tetrahydronaphthalen-1-yl)-1H-pyrazolo[3,4-d]pyrimidin-4-amine], the “PI3Kδ @ 0.1 μM (% Inh)” value in test [1] stood at 27.41 % Inh. Also, the “BTK @ 0.1 μM (% Inh)” value in test [2] is on record as 7.04 % Inh.

On to `Nc1ncnc2c1c(CCCO)nn2C1Cc2ccccc2C1` (single isomer, unassigned) [Compound No. 65, 3-[4-amino-1-(2,3-dihydro-1H-inden-2-yl)-1H-pyrazolo[3,4-d]pyrimidin-3-yl]propan-1-ol], for which, in test [1], the “PI3Kδ @ 0.1 μM (% Inh)” value is recorded as −4.81 % Inh and the “PI3Kδ @ 1 μM (% Inh)” value is on record as 11.18 % Inh. Further, in test [2], the “BTK @ 0.1 μM (% Inh)” value is on record as 4.02 % Inh and the “BTK @ 1 μM (% Inh)” value was 7.69 % Inh.

Turning to `Nc1ncnc2c1c(-c1ccc3cc[nH]c3c1)nn2C1CCCc2ccccc21` (stereo not drawn) [compound 38, 3-(1H-indol-6-yl)-1-(1,2,3,4-tetrahydronaphthalen-1-yl)-1H-pyrazolo[3,4-d]pyrimidin-4-amine], the “PI3Kδ @ 0.1 μM (% Inh)” value in test [1] is reported as 7.33 % Inh. The “BTK @ 0.1 μM (% Inh)” value in test [2] amounted to 15.94 % Inh.

For the molecule `Nc1ncnc2c1c(-c1ccc(F)c(O)c1)nn2C1CCCc2ccccc21` (stereo not drawn) [compound 12, 5-(4-amino-1-tetralin-1-yl-pyrazolo[3,4-d]pyrimidin-3-yl)-2-fluoro-phenol], the “PI3Kδ @ 0.1 μM (% Inh)” value in test [1] turned out to be 6.22 % Inh. Further, the “BTK @ 0.1 μM (% Inh)” value in test [2] is given as 31.62 % Inh.

`CCOc1cc(-c2nn(C3Cc4ccccc4C3)c3ncnc(N)c23)cc(Cl)c1OC(C)C` [Compound No. 79, 3-[3-chloro-5-ethoxy-4-(propan-2-yloxy)phenyl]-1-(2,3-dihydro-1H-inden-2-yl)-1H-pyrazolo[3,4-d]pyrimidin-4-amine]: in test [1], the “PI3Kδ @ 0.1 μM (% Inh)” value amounted to 6.45 % Inh and the “PI3Kδ @ 1 μM (% Inh)” value is 12.1 % Inh. In test [2], the “BTK @ 0.1 μM (% Inh)” value amounted to 7.61 % Inh and the “BTK @ 1 μM (% Inh)” value is recorded as 9.02 % Inh.

For `NCc1ccc(-c2nn(C3Cc4ccccc4C3)c3ncnc(N)c23)cc1` [compound 138, 3-[4-(aminomethyl)phenyl]-1-(2,3-dihydro-1H-inden-2-yl)-1H-pyrazolo[3,4-d]pyrimidin-4-amine], in test [1], the “PI3Kδ @ 0.01 μM (% Inh)” value was −2.71 % Inh and the “PI3Kδ @ 0.1 μM (% Inh)” value was 5.54 % Inh. For the same molecule, in test [2], the “BTK @ 0.01 μM (% Inh)” value was −7.89 % Inh and the “BTK @ 0.1 μM (% Inh)” value is recorded as −6.05 % Inh.

By IC50 is commonly meant the concentration needed to halve the response being measured. Read a low IC50 as inhibition by little substance.
